Reference: US12240818B2, “Crystalline forms of plasma kallikrein inhibitors” (Rezolute, Inc., priority 2019, dated 2025)

Legend:
[1] = tested on: angiotensin-II-treated rodents; details: cited from earlier work
[2] = tested on: rat model of ischemic stroke; details: cited from earlier work
[3] = tested on: model of hemorrhagic stroke; details: cited from earlier work
[4] = Aqueous solubility of solid forms; format: physicochemical; details: for aqueous solubility: at 25° C., acetate
[5] = Compression stability of crystalline forms (XRPD, TGA, DSC); format: physicochemical; details: compression under 11×10^5 N force for about 25-28 hours; acetate
Method: X-Ray Powder Diffraction patterns were collected under ambient conditions (about 20° C.) on a PANalytical X'Pert PRO X-ray diffractometer (Malvern Panalytical, Malvern, UK) using Cu Kα radiation (45 kV, 40 mA), θ-θ goniometer, focusing mirror, divergence slit (½″), Soller slits at both incident and divergent beam (4 mm), a transmission foil sample stage (Kapton® polyimide, 12.7 μm thickness film), and a PIXcel detector. The software used for data collection was X'Pert Data Collector, version 2.2f, and the data was presented using X'Pert Data Viewer, version 1.2d. The data collection range was 2.994-35°2θ with a continuous scan speed of 0.202004° s^−1. Differential scanning calorimetry data was collected on a PerkinElmer Pyris 6000 DSC equipped with a 45 position sample holder. The instrument was verified for energy and temperature calibration using certified indium. In the examples below, a predefined amount of the sample (0.5-3.0 mg) was placed in a pin holed aluminum pan and heated at 20° C./min from 30° C. to 350° C., or varied as experimentation dictated. A purge of dry nitrogen at 20 mL/min was maintained over the sample. The instrument control, data acquisition and analysis were performed with Pyris Software v11.1.1 revision H. Thermo-Gravimetric Analysis data was collected on a PerkinElmer Pyris 1 TGA equipped with a 20 position auto-sampler. The instrument was calibrated using a certified weight and certified Alumel and Perkalloy for temperature. In the examples below, a predefined amount of the sample (˜5 mg) was loaded onto a pre-tared aluminum crucible and was heated at 20° C./min from ambient temperature to 400° C. unless otherwise stated. A nitrogen purge at 20 mL/min was maintained over the sample. The instrument control, data acquisition and analysis were performed with Pyris Software v11.1.1 revision H. The manufacturing process for solid dosage forms can require high compression and/or grinding, which may cause a change in crystal structure for some compounds. Compound 1 Form I and Form II were subjected to compression under 11×10^5N force for about 25-28 hours to assess the impact of compression upon the form stability of these crystalline forms.

[6] = Grinding stability of crystalline forms (XRPD, thermal); format: physicochemical
Method: X-Ray Powder Diffraction patterns were collected under ambient conditions (about 20° C.) on a PANalytical X'Pert PRO X-ray diffractometer (Malvern Panalytical, Malvern, UK) using Cu Kα radiation (45 kV, 40 mA), θ-θ goniometer, focusing mirror, divergence slit (½″), Soller slits at both incident and divergent beam (4 mm), a transmission foil sample stage (Kapton® polyimide, 12.7 μm thickness film), and a PIXcel detector. The software used for data collection was X'Pert Data Collector, version 2.2f, and the data was presented using X'Pert Data Viewer, version 1.2d. The data collection range was 2.994-35°2θ with a continuous scan speed of 0.202004° s^−1.
Differential scanning calorimetry data was collected on a PerkinElmer Pyris 6000 DSC equipped with a 45 position sample holder. The instrument was verified for energy and temperature calibration using certified indium. In the examples below, a predefined amount of the sample (0.5-3.0 mg) was placed in a pin holed aluminum pan and heated at 20° C./min from 30° C. to 350° C., or varied as experimentation dictated. A purge of dry nitrogen at 20 mL/min was maintained over the sample. The instrument control, data acquisition and analysis were performed with Pyris Software v11.1.1 revision H.
Thermo-Gravimetric Analysis data was collected on a PerkinElmer Pyris 1 TGA equipped with a 20 position auto-sampler. The instrument was calibrated using a certified weight and certified Alumel and Perkalloy for temperature. In the examples below, a predefined amount of the sample (˜5 mg) was loaded onto a pre-tared aluminum crucible and was heated at 20° C./min from ambient temperature to 400° C. unless otherwise stated. A nitrogen purge at 20 mL/min was maintained over the sample. The instrument control, data acquisition and analysis were performed with Pyris Software v11.1.1 revision H.
Samples of both Form I and Form II (about 100 mg each) were subjected to grinding operations to assess the impact on solid form and observed microscopy. It was of interest to note whether amorphous content was generated, and to review the impact upon water content for the batches, especially with regards to Form II hydrate.

[7] = tested on: patients with hereditary angioedema; details: cited from earlier work
[8] = tested on: animal model of ischemic stroke; details: cited from earlier work
[9] = tested on: mouse model of middle cerebral artery occlusion; details: cited from earlier work

Question: With `CC(=O)O.N=C(N)c1ccc(CNC(=O)c2cnn(Cc3ccccc3)c2)cc1` [Compound 1, 1-benzyl-N-(4-carbamimidoylbenzyl)-1H-pyrazole-4-carboxamide acetate salt] as the molecule, how does the retinal vascular permeability [1] read?
Answer: reduce retinal vascular permeability

Question: What about the “infarction volume and cerebrovascular edema” value [2] of the same molecule?
Answer: reduce infarction volume and cerebrovascular edema

Question: And the “expansion of intracerebral hemorrhage” value [3]?
Answer: reduce

Question: For `CC(=O)O.N=C(N)c1ccc(CNC(=O)c2cnn(Cc3ccccc3)c2)cc1` [Form I, 1-benzyl-N-(4-carbamimidoylbenzyl)-1H-pyrazole-4-carboxamide acetate], which solubility ([4]; water, 25 °C) is on record?
Answer: ~8300 µg/mL

Question: What about the “DSC thermograph change following compression” value [5] of the same molecule?
Answer: reduction in the intensity and temperature of the melt endotherm

Question: And the “TGA thermograph change following compression” value [5]?
Answer: no change in the TGA thermograph

Question: And the “XRPD pattern change following compression” value [5]?
Answer: subtle reduction in diffraction resolution

Question: What about the “stability under manual stress” value ([6]; compression and grinding, summary) of the same molecule?
Answer: superior stability to hydrated Form II

Question: With `CC(=O)O.N=C(N)c1ccc(CNC(=O)c2cnn(Cc3ccccc3)c2)cc1` [Form II, 1-benzyl-N-(4-carbamimidoylbenzyl)-1H-pyrazole-4-carboxamide acetate] as the molecule, how does the aqueous solubility [4] read?
Answer: about 5.5 mg/mL

Question: And the “DSC thermograph change following compression” value [5]?
Answer: reduction in the intensity, but increase of the temperature of the main melt endotherm

Question: And the “TGA thermograph change following compression” value [5]?
Answer: slight increase in the water content

Question: And the “XRPD pattern change following compression” value [5]?
Answer: significant change in the diffraction pattern to a pattern of reduced crystallinity

Question: And the “change of solid form post-grinding (thermal, XRPD)” value ([6]; about 100 mg ground)?
Answer: minor alteration in reflection resolution and intensity

Question: And the water content post-grinding ([6]; after grinding)?
Answer: 3.93 wt %

Question: And the “water content at point of production” value ([6]; before grinding)?
Answer: 2.76 wt %

Question: For `CC(=O)O.N=C(N)c1ccc(CNC(=O)c2cnn(Cc3ccccc3)c2)cc1` [Form III, 1-benzyl-N-(4-carbamimidoylbenzyl)-1H-pyrazole-4-carboxamide acetate], which aqueous solubility [4] is on record?
Answer: about 7.2 mg/mL

Question: With `CC(=O)O.N=C(N)c1ccc(CNC(=O)c2cnn(Cc3ccccc3)c2)cc1` [Form V, 1-benzyl-N-(4-carbamimidoylbenzyl)-1H-pyrazole-4-carboxamide acetate] as the molecule, how does the aqueous solubility [4] read?
Answer: about 7.1 mg/mL

Question: Which “effect on hereditary angioedema” value [7] does the source give for `NC(N)=NCCC[C@@H](N)C(=O)N[C@@H](CCCN=C(N)N)C(=O)N1CCC[C@H]1C(=O)N1C[C@H](O)C[C@H]1C(=O)NCC(=O)N[C@@H](Cc1cccs1)C(=O)N[C@@H](CO)C(=O)N1Cc2ccccc2C[C@@H]1C(=O)N1[C@H](C(=O)N[C@@H](CCCN=C(N)N)C(=O)O)C[C@@H]2CCCC[C@@H]21` [icatibant] here?
Answer: effective

Question: With Ecallantide as the molecule, how does the “effect on hereditary angioedema” value [7] read?
Answer: alleviates edema

Question: What about the “brain edema, infarct volume and neurological deficits” value [8] of the same molecule?
Answer: reduced brain edema, infarct volume and neurological deficits

Question: Which retinal vascular permeability [1] does the source give for Hoe-140 [reference compound] here?
Answer: reduce retinal vascular permeability

B1: C1-INH: the major endogenous inhibitor of PK (protein, UniProt P05155 23-500, looked up)
Plasma protease C1 inhibitor: NPNATSSSSQDPESLQDRGEGKVATTVISKMLFVEPILEVSSLPTTNSTTNSATKITANTTDEPTTQPTTEPTTQPTIQPTQPTTQLPTDSPTQPTTGSFCPGPVTLCSDLESHSTEAVLGDALVDFSLKLYHAFSAMKKVETNMAFSPFSIASLLTQVLLGAGENTKTNLESILSYPKDFTCVHQALKGFTTKGVTSVSQIFHSPDLAIRDTFVNASRTLYSSSPRVLSNNSDANLELINTWVAKNTNNKISRLLDSLPSDTRLVLLNAIYLSAKWKTTFDPKKTRMEPFHFKNSVIKVPMMNSKKYPVAHFIDQTLKAKVGQLQLSHNLSLVILVPQNLKHRLEDMEQALSPSVFKAIMEKLEMSKFQPTLLTLPRIKVTTSQDMLSIMEKLEFFDFSYDLNLCGLTEDPDLQVSAMQHQTVLELTETGVEAAAASAISVARTLLVFEVQQPFLFVLWDQQHKFPVFMGRVYDPRA
Question: For B1, which infarct size [9] is on record?
Answer: reduced infarct size
